# From patent US12390534B2, “Branched degradable polyethylene glycol binder” (NOF CORPORATION, priority 2019, dated 2025)
# Bridge positions count the residues as written; N and C are the ends. Ends that are not written are not given here.
# Test system: plasma calcium concentration
# Test: Evaluation of physiological activity of PEGylated salmon calcitonin (blood calcium concentration)
# Type: in vivo, mouse
# Parameters: dose or concentration left out as unconfirmed
# Conditions: Balb/c mice, sCT dose, plasma at 1, 6, 24 hr, compared to PBS group, FIG. 16
# Method: The method for evaluating the physiological activity of a degradable polyethylene glycol derivative-bonded bio-related substance is not particular limited. For example, when the bio-related substance is insulin, blood sugar concentration is measured, and when it is calcitonin, blood calcium concentration is measured, by periodically collecting blood from the animal that received administration and measuring the substance in the blood by using an appropriate analytical instrument, and the like, based on which the evaluation can be performed. Specifically, in the case of insulin, a glucose measurement kit is used to monitor a decrease in glucose concentration after administration and, in the case of calcitonin, a decrease in calcium concentration after administration is monitored using a calcium measurement kit, based on which the evaluation can be performed.
# The physiological activities of 4 groups of sCT-E(FG-200ME)2 which is SCT to which degradable polyethylene glycol derivative with a molecular weight of 40,000 is bonded and methoxy PEG 40 kDa-sCT, in which non-degradable methoxy PEG 40 kDa is bonded, each of which is obtained in Example 9, unmodified sCT, and PBS were comparatively evaluated in animal experiments. […]
substance,measurement,value
Unmodified sCT: salmon calcitonin (sCT) with the amino acid sequence CSNLSTCVLGKLSQELHKLQTYPRTNTGSGTP (SEQ ID NO: 1) (CSNLSTCVLGKLSQELHKLQTYPRTNTGSGTP-NH2; disulfide 1-7; ends not checked; listed as Oncorhynchus keta),plasma calcium concentration after administration (in words),showed an increase in calcium concentration from 6 hr after administration
